The values below come from PubChem BioAssay (NCI).

Each structure is given as a SMILES string. Several values for one entry are separate records, joined by “and”; a condition that tells them apart may be missing. Equal entries are not always repeated.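 Where inhibition never reached the appropriate level, the endpoint shown equals the highest concentration tested. Otherwise, values were interpolated linearly from a five-concentration, 48-hour dose response in 96-well plates. GI50 is the concentration that inhibits growth by half. TGI marks complete inhibition of growth.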

Test systems include HL-60(TB) leukemia; SNB-19 CNS; SF-539 CNS; SF-268 CNS; NCI-H226 lung; NCI-H460 lung; MALME-3M melanoma; UO-31 renal; KM12 colon; 786-0 renal.
Assay in all cases: NCI anticancer screen, dose series, 48 h

Consider `CCOc1ccc2c(-c3ccnc(Nc4cc(OC)cc(C(F)(F)F)c4)n3)cnn2n1`, for which the GI50 in the assay on HL-60(TB) leukemia was > 25 µM; with SNB-19 CNS it was > 25 µM; in the assay on SF-539 CNS, 5.96 µM; with SF-268 CNS it was > 18.9 µM; with NCI-H226 lung it was > 25 µM; in the assay with NCI-H460 lung it was > 15.7 µM. Further, the GI50 is > 25 µM in the assay on MALME-3M melanoma, > 25 µM in the assay on UO-31 renal, 3.58 µM in the assay with KM12 colon and > 13.3 µM in the assay on 786-0 renal. Besides, the TGI with HL-60(TB) leukemia is > 25 µM; in the assay with SNB-19 CNS it was > 25 µM; in the assay with SF-539 CNS, > 14.7 µM; in the assay on SF-268 CNS it was > 25 µM; in the assay on NCI-H226 lung, > 25 µM; with NCI-H460 lung, > 25 µM. Further, the TGI in the assay on MALME-3M melanoma, in the assay on UO-31 renal, in the assay on KM12 colon and in the assay on 786-0 renal was > 25 µM each time.

Turning to `NC(=N\N=C/c1ccc(O)cc1)/C(N)=N\N=C/c1ccc(O)cc1`, the GI50 in the assay on HL-60(TB) leukemia was 0.251 µM; in the assay on SNB-19 CNS, 62.5 µM; with SF-539 CNS, 3.99 µM; in the assay with SF-268 CNS it was 16.4 µM; in the assay with NCI-H226 lung, > 100 µM; with NCI-H460 lung it was 13.8 µM. Further, the GI50 is > 100 µM in the assay on MALME-3M melanoma, 1.21 µM in the assay on UO-31 renal, 1.75 µM in the assay on KM12 colon and 21.1 µM with 786-0 renal. The TGI in the assay with SNB-19 CNS, in the assay with SF-539 CNS, with SF-268 CNS, in the assay with NCI-H226 lung, with NCI-H460 lung and in the assay with MALME-3M melanoma was > 100 µM throughout. The TGI with UO-31 renal, in the assay with KM12 colon and in the assay on 786-0 renal was > 100 µM each time.

On to `N#C/C(=C1\SCC(=O)N1c1ccccc1)c1nc2ccccc2[nH]1`, for which the TGI in the assay with HL-60(TB) leukemia, in the assay with SNB-19 CNS, in the assay with SF-539 CNS, in the assay with SF-268 CNS, with NCI-H226 lung and in the assay on NCI-H460 lung was > 100 µM each time. Further, the TGI in the assay on MALME-3M melanoma, in the assay with UO-31 renal and with 786-0 renal was > 100 µM each time.

Turning to `CCC1(O)CC(OC2CC(N(C)C)C(OC3CC(O)C(OC4OC(C)C(=O)C=C4N)C(C)O3)C(C)O2)c2c(cc3c(c2O)C(=O)c2c(O)cccc2C3=O)C1C(=O)OC` (stereo not drawn), the TGI with HL-60(TB) leukemia was 0.5 µM and 0.079 µM; with SNB-19 CNS it was 2.05 µM; in the assay on SF-539 CNS, 0.502 µM and 1.4 µM; with SF-268 CNS, 2.89 µM and 1.38 µM; with NCI-H226 lung it was 0.347 µM and 0.0894 µM; in the assay with MALME-3M melanoma it was 0.233 µM and 0.137 µM. For the same molecule, the TGI in the assay with UO-31 renal was 0.96 µM and 0.809 µM; with KM12 colon, 1.13 µM and 1.5 µM; in the assay on 786-0 renal it was 0.0971 µM. Moreover, the GI50 with SF-268 CNS is 0.0127 µM; in the assay with NCI-H226 lung, 0.0161 µM; with MALME-3M melanoma, 0.0208 µM; with UO-31 renal it was 0.106 µM.

On to `Cc1ccc(S(=O)(=O)N/N=C(\c2nc3ccc(Cl)cc3[nH]c2=O)C(O)c2ccco2)cc1` (stereo not drawn), for which the TGI in the assay on HL-60(TB) leukemia, in the assay on SNB-19 CNS, in the assay with SF-539 CNS, in the assay with SF-268 CNS, with NCI-H226 lung and in the assay on NCI-H460 lung was > 100 µM in each case. The TGI in the assay on MALME-3M melanoma, in the assay on KM12 colon and in the assay with 786-0 renal was > 100 µM throughout.

Regarding `C=CO/N=[N+](\[O-])N(CC)CC`, the TGI in the assay with HL-60(TB) leukemia, in the assay on SNB-19 CNS, with SF-539 CNS, in the assay on SF-268 CNS, in the assay on NCI-H226 lung and in the assay on NCI-H460 lung was > 100 µM each time. Besides, the TGI in the assay on MALME-3M melanoma, in the assay with KM12 colon and with 786-0 renal was > 100 µM each time.

Regarding `C/C(CC(=O)NCCc1ccccc1)=N\NS(=O)(=O)c1ccc(C)cc1`, the TGI in the assay on HL-60(TB) leukemia, in the assay with SF-539 CNS, in the assay on SF-268 CNS, in the assay on NCI-H226 lung, in the assay on NCI-H460 lung and in the assay on MALME-3M melanoma was > 100 µM throughout. The TGI with UO-31 renal, in the assay on KM12 colon and with 786-0 renal was > 100 µM in each case.

With `COc1cc(-c2nc3ccccc3s2)ccc1OCCCCOc1cc2c(cc1OC)C(=O)N1CCC[C@H]1C=N2`, the GI50 in the assay with HL-60(TB) leukemia was 0.93 µM; in the assay with SNB-19 CNS, 1.57 µM; in the assay on SF-539 CNS, 1.61 µM; in the assay with SF-268 CNS, 1.28 µM; in the assay with NCI-H226 lung it was 2.47 µM; with NCI-H460 lung, 1 µM. The GI50 in the assay on MALME-3M melanoma is 1.55 µM; with UO-31 renal, 1.17 µM; with 786-0 renal, 0.9 µM. The TGI was 4.98 µM with HL-60(TB) leukemia; 4.11 µM in the assay on SNB-19 CNS; 3.22 µM in the assay with SF-539 CNS; 4.65 µM in the assay on SF-268 CNS; 5.05 µM in the assay on NCI-H226 lung; 3.4 µM in the assay on NCI-H460 lung. For the same molecule, the TGI with MALME-3M melanoma was 3.46 µM; with UO-31 renal, 4.06 µM; in the assay with 786-0 renal, 2.17 µM.

As to `[N-]=[N+]=NC(c1cn(C2CC(O)C(CO)O2)c(=O)[nH]c1=O)C(Cl)Br` (stereo not drawn), the TGI with HL-60(TB) leukemia, with SNB-19 CNS, with SF-539 CNS, in the assay with NCI-H226 lung, in the assay with NCI-H460 lung and in the assay with MALME-3M melanoma was > 100 µM each time. Further, the TGI with UO-31 renal, in the assay with KM12 colon and in the assay with 786-0 renal was > 100 µM each time.

As for `CCCCC(SC(=S)N1CCCC1)C(=O)Nc1nc(CC(=O)OCC)cs1` (stereo not drawn), the GI50 in the assay with HL-60(TB) leukemia is 25 µM; in the assay on SNB-19 CNS, 65.1 µM; with SF-539 CNS it was 72.4 µM; in the assay on SF-268 CNS, 37.5 µM; in the assay with NCI-H226 lung it was 71 µM; with MALME-3M melanoma, > 100 µM. Moreover, the GI50 with UO-31 renal is 36.9 µM; with KM12 colon it was 45.3 µM; in the assay with 786-0 renal, 62.2 µM. For the same molecule, the TGI in the assay on HL-60(TB) leukemia, with SNB-19 CNS, in the assay with SF-539 CNS, in the assay with SF-268 CNS, in the assay with NCI-H226 lung and in the assay with MALME-3M melanoma was > 100 µM throughout. The TGI in the assay with UO-31 renal, with KM12 colon and in the assay on 786-0 renal was > 100 µM in each case.
